Like-named read-outs stand apart in the source and are kept apart here.
Tests used:
[1] = system: Burkholderia cepacia J2315; experiment: MIC by standard broth dilution; assay type: cell-based; conditions: Table S1
Method: (§1) Pseudomonas aeruginosa strain PAO1 (P. aeruginosa) was grown in M9 minimal medium (1.0 g/L NH4Cl, 0.5 g/L NaCl, 6.0 g/L Na2HPO4, 3.0 g/L KH2PO4) supplemented with 1.0 mM MgSO4, 1.0 mM ZnSO4, 0.2 mM CaCl2, 0.4% (w/v) glucose and 0.2% (w/v) casein hydrolysate. Gram-negative Escherichia coli strain K-12 (E. coli) and Burkholderia cepacia J2315 (B. cepacia) were cultured in Luria-Bertani (LB) medium (5 g/L yeast extract, 10 g/L tryptone, 10 g/L sodium chloride). The Gram-positive Staphylococcus aureus strain Newman (S. aureus) was grown in Tryptic Soy Broth (TSB) medium (17 g/L Tryptone, 3 g/L Phytone, 5 g/L sodium chloride, 2.5 g/L dipotassium phosphate and glucose 2.5 g/L).
(§2) The minimal inhibitory concentration (MIC) values of the gallium compounds were determined using a standard broth dilution method as described previously ([Wiegand et al., 2008]). In brief, the compounds were two-fold serially diluted to concentrations from 400 to 1.56 μM. Approximately 50 μL of the compound solution was added to a 96-well microtiter plate and mixed with 50 μL of bacteria culture in log phase (10^6 CFU/ml). The bacterial culture was further incubated at 37°C for 22–24 h. The OD600 values for each well was recorded on a microplate reader. The MICs value was defined as the lowest compound concentration that inhibited 95% of the bacterial growth.

[2] = system: Escherichia coli MG16552; experiment: MIC by standard broth dilution; assay type: cell-based; conditions: Table S1
Method: as §1, §2

[3] = system: Pseudomonas aeruginosa strain PAO1; experiment: MIC by standard broth dilution; assay type: cell-based; conditions: read-out: MIC
Method: as §1, §2

[4] = system: Staphylococcus aureus Newman; experiment: MIC by standard broth dilution; assay type: cell-based; conditions: Table S1
Method: as §1, §2

[5] = system: P. aeruginosa; experiment: Checkerboard assay with antibiotics; assay type: cell-based, Pseudomonas aeruginosa; conditions: with tobramycin and colistin
Excerpt: Figure S4. Heat plots of checkerboard assays for gold(I) compounds in combination with different antibiotics against P. aeruginosa.

[6] = system: P. aeruginosa; experiment: Drug resistance development assay (serial passage); assay type: cell-based, Pseudomonas aeruginosa; conditions: serial passage at sub-lethal concentrations over 14 days
Method: Development of resistance to the Au1 compound and the antibiotics (ciprofloxacin and tobramycin) were assessed as described by [Habets and Brockhurst (2012)]. The MIC assay was performed on the first day as described above. […] Thereafter, a new passage MIC measurement assay was prepared using diluted bacterial cells grown at 0.5-fold MIC suspension. This was repeated for 14 passages and the MIC values for Au1, ciprofloxacin and tobramycin were recorded for each passage.

[7] = system: pyocyanin; experiment: Quantification of secreted pyocyanin; assay type: cell-based, Pseudomonas aeruginosa; conditions: 15 μM; 24 h
Method: (§3) To quantify the secreted virulence factors, overnight P. aeruginosa PAO1 was diluted in fresh M9 medium and cultured to a final OD600 value of 0.15. Then Au1 or auranofin were added into culture with indicated concentrations. After 24 h incubation at 37°C, the bacterial supernatants were collected by centrifugation at 4,000 g for 10 min at 4°C and filtered using a 0.22 μm syringe filter (Millipore). The secreted virulence factors in the supernatant were quantified by the methods described below.
The bacterial secreted pyocyanin was quantified as described previously ([Essar et al., 1990]). Approximately 10 ml bacterial supernatant medium was collected by centrifugation. Subsequently, 3 ml chloroform was added into medium to extract the pyocyanin. The pyocyanin was re-extracted into 1 ml of 0.2 M HCl to give a pink to deep red solution after approximately 30 min. The pyocyanin concentration was determined by measurement the absorbance at 520 nm.

[8] = system: LasA protease; experiment: LasA protease detection (azocasein); assay type: cell-based, Pseudomonas aeruginosa; conditions: 15 μM; 24 h
Method: as §3
For LasA protease detection, 5 μL of filtered supernatant was mixed with 1 ml of 0.5% azocasein (Sigma-Aldrich) in reaction buffer (50 mM Tris-HCl, 0.5 mM CaCl2, pH 7.5). The mixture was incubated at 37°C for 15 min. After reaction, 500 μL of 10% trichloroacetic (TCI Shanghai) acid was added and incubated for 30 min at room temperature. After centrifugation at 10,000 g for 20 min, the 440 nm absorbance of the collected supernatant was measured to quantify the secreted LasA protease.

[9] = system: rhamnolipid; experiment: Rhamnolipid measurement (anthrone); assay type: cell-based, Pseudomonas aeruginosa; conditions: 15 μM
Method: as §3
For rhamnolipid measurement, rhamnolipid was extracted from the supernatant with a mixture of chloroform and methanol (v:v = 2:1). The organic solvent phase was then evaporated to dryness and 100 μL methanol was added to dissolve the extracted rhamnolipid. Then 200 μL of pre-cooled anthrone solution (dissolving 2 g of anthrone in 1 L of concentrated H2SO4) was added into 20 μL extracted rhamnolipid sample and heat at 80°C for 30min. The rhamnolipid concentration was determined by measurement the absorbance at 630 nm.

[10] = system: P. aeruginosa biofilm; experiment: Biofilm inhibition, crystal violet; assay type: cell-based, Pseudomonas aeruginosa; conditions: 48 h static incubation
Method: P. aeruginosa was cultured in 24-well microtiter plate (Corning, NY, United States) for static biofilm formation. For biofilm inhibition assay, approximately 1 ml of bacterial overnight culture were diluted in fresh M9 medium with a final OD600 value of 0.33 and transferred into each well of microtiter plate in the absence or presence of sub-lethal concentration of Au1 or auranofin (2.5, 10, and 15 μM). After static incubation at 37°C for 48 h, weakly adherent planktonic cells were removed from the microtiter plate by washing with phosphate buffered saline (PBS) for three times gently. The adherent biofilms were dried and stained with 0.1% (w/v) crystal violet for 15 min. Excess dye was removed by rinsing the plate three times with PBS. Crystal violet was solubilized from the stained biofilms by adding 30% acetic acid and the biofilms were quantified by measuring the 595 nm absorbance. Each experiment was performed in triplicates.

[11] = system: P. aeruginosa; experiment: Time-course of bacterial membrane permeation, propidium iodide microplate; assay type: cell-based, Pseudomonas aeruginosa; conditions: 50 μM; 37°C
Method: Overnight P. aeruginosa culture was diluted 1:100 with fresh M9 medium and grown to early-mid exponential phase (OD600 = 0.4–0.6). The culture was then diluted 1:10 into PBS and treated with the 50 μM concentration of Au1 or auranofin for 30 min. Then the bacteria were incubated with propidium iodide (PI), a dye that is excluded from cells with impermeable membrane. The CytoFLEX flow cytometry (Beckman Coulter) was used to measure the bacterial fluorescent intensities and the data was analyzed using CytExpert 2.4 software. For the time-course detection of the bacterial permeability induced by Au1 or auranofin, P. aeruginosa in early-mid exponential phase (OD600 = 0.2) was incubated with PI dye on a 96-well plate. Au1 or auranofin was added to a final concentration of 50 μM. The fluorescence signal (561 nm excitation, 590 nm emission) and OD600 value were recorded on Cytation5 microplate reader. Each experiment was performed in triplicates.

For NHC^Me-Au-Cl [Au1], the MIC [1] was 25 µM, the MIC [2] was <1.56 µM and the MIC ([3]; P. aeruginosa PAO1, lowest concentration inhibiting 95% of growth, 22–24 h, Table 1) was 25 µM. The MIC ([3]; Pseudomonas aeruginosa PAO1, Table S1) was 25 µM, the MIC [4] was <1.56 µM and the “synergistic effects with antibiotics” value [5] was “synergistic effects”. The development of resistance [6] was “not observed”, the pyocyanin secretion [7] was “almost completely inhibited” and the “decrease of LasA protease secretion” value [8] was 54%. For the same substance, the synthesis of rhamnolipid [9] was “significantly suppress”, the “lowest concentration sufficient to inhibit biofilm formation” value [10] was 2.5 µM and the “time to initiation of bacterial membrane rupture” value [11] was 1.5 h.
